The assay relates to monocotyledonous and dicotyledonous weed. Put plainly: Post-emergence test, weed control effect (Tables 6 and 7). The class given is in vivo. Details: key: 10: completely dead; above 90% growth inhibition rate; above 80% growth inhibition rate; above 70% growth inhibition rate; above 60% growth inhibition rate; above 50% growth inhibition rate; above 40% growth inhibition rate; above 30% growth inhibition rate; above 20% growth inhibition rate; 1: below 20% growth inhibition rate; 0: no effect. As to conditions: for comparison experiment (activity level), Digitaria sanguinalis / comparison experiment (activity level), Echinochloa crus-galli / comparison experiment (activity level), Galium aparine / comparison experiment (activity level), Rorippa indica / comparison experiment (activity level), Setaria viridis / comparison experiment (activity level), Veronica polita: Dose 300 g/ha; for weed control effect (activity level), Amaranthus retroflexus / weed control effect (activity level), Chenopodiaceae / weed control effect (activity level), Rorippa indica / weed control effect (activity level), Veronica polita: after 3 weeks. Here is the method: The above described growth inhibition rates are fresh weight inhibition rates. Experiment of post-emergence test: monocotyledonous and dicotyledonous weed seeds as well as main crop seeds (i.e., wheat, corn, rice, soybean, cotton, oilseed rape, millet and sorghum) were put into aplastic pot loaded with soil, then covered with 0.5-2 cm of soil, and the seeds were allowed to grow in good greenhouse environment. The test plants were treated at 4-5 leaf stage 2-3 week […] sowing. The test compounds of the invention were dissolved in acetone respectively, then added with Tween-80 and diluted by a certain amount of water to give solutions with certain concentrations. The solution was sprayed to the plants with as prayer. The plants were cultured for 3 weeks in the greenhouse.

As for `Oc1cc(Cl)nnc1-c1cccnc1` [Compound 1-1], the “comparison experiment (activity level), Digitaria sanguinalis” value was 7 (above 70% growth inhibition rate); the “comparison experiment (activity level), Echinochloa crus-galli” value was 8 (above 80% growth inhibition rate); the “comparison experiment (activity level), Galium aparine” value was 9 (above 90% growth inhibition rate); the “comparison experiment (activity level), Rorippa indica” value turned out to be 10. The “comparison experiment (activity level), Setaria viridis” value turned out to be 10 and the “comparison experiment (activity level), Veronica polita” value is listed as 9 (above 90% growth inhibition rate). For the setting “Dose 2000 g/ha”, the “weed control effect (activity level), Amaranthus retroflexus” value is on record as 10; the “weed control effect (activity level), Chenopodiaceae” value (from here on “weed control effect … Chenopodiaceae”) came out at 10; the “weed control effect (activity level), Rorippa indica” value (from here on “weed control effect … Rorippa indica”) was found to be 10; the “weed control effect (activity level), Veronica polita” value (from here on “weed control effect … Veronica polita”) came to 10.
Regarding `Oc1cc(Cl)nnc1-c1cccnc1F` [Compound 1-2], the “comparison experiment (activity level), Digitaria sanguinalis” value is 8 (above 80% growth inhibition rate); the “comparison experiment (activity level), Echinochloa crus-galli” value is listed as 10; the “comparison experiment (activity level), Galium aparine” value is on record as 9 (above 90% growth inhibition rate); the “comparison experiment (activity level), Rorippa indica” value came to 10. The “comparison experiment (activity level), Setaria viridis” value came to 10 and the “comparison experiment (activity level), Veronica polita” value turned out to be 10. Further, for the setting “Dose 2000 g/ha”, the “weed control effect (activity level), Amaranthus retroflexus” value stood at 10; the “weed control effect … Chenopodiaceae” value is on record as 10; the “weed control effect … Rorippa indica” value was 10; the “weed control effect … Veronica polita” value amounted to 10.
As for `Oc1cc(Cl)nnc1-c1ccc(F)nc1` [Compound 1-3], for the setting “Dose 2000 g/ha”, the “weed control effect (activity level), Amaranthus retroflexus” value is 10; the “weed control effect … Chenopodiaceae” value stood at 10; the “weed control effect … Rorippa indica” value is reported as 10; the “weed control effect … Veronica polita” value is given as 10.
Regarding `Oc1cc(Cl)nnc1-c1cncc(F)c1` [Compound 1-4], the “comparison experiment (activity level), Digitaria sanguinalis” value is 8 (above 80% growth inhibition rate); the “comparison experiment (activity level), Echinochloa crus-galli” value is listed as 8 (above 80% growth inhibition rate); the “comparison experiment (activity level), Galium aparine” value stood at 10; the “comparison experiment (activity level), Rorippa indica” value came out at 10. For the same compound, the “comparison experiment (activity level), Setaria viridis” value is 10 and the “comparison experiment (activity level), Veronica polita” value turned out to be 10. Under “Dose 2000 g/ha”, the “weed control effect (activity level), Amaranthus retroflexus” value is 10; the “weed control effect … Chenopodiaceae” value turned out to be 10; the “weed control effect … Rorippa indica” value stood at 10; the “weed control effect … Veronica polita” value came to 10.
As for `Oc1cc(Cl)nnc1-c1cnccc1F` [Compound 1-5], under “Dose 2000 g/ha”, the “weed control effect (activity level), Amaranthus retroflexus” value worked out at 10; the “weed control effect … Chenopodiaceae” value turned out to be 10; the “weed control effect … Rorippa indica” value is given as 10; the “weed control effect … Veronica polita” value is listed as 10.
Consider `Oc1cc(Cl)nnc1-c1cccnc1Cl` [Compound 1-6], for which, for the setting “Dose 2000 g/ha”, the “weed control effect (activity level), Amaranthus retroflexus” value is reported as 10; the “weed control effect … Chenopodiaceae” value worked out at 10; the “weed control effect … Rorippa indica” value turned out to be 10; the “weed control effect … Veronica polita” value is recorded as 7 (above 70% growth inhibition rate).
Consider `Oc1cc(Cl)nnc1-c1cncc(Cl)c1` [Compound 1-8], for which, under “Dose 2000 g/ha”, the “weed control effect (activity level), Amaranthus retroflexus” value was 10; the “weed control effect … Chenopodiaceae” value is given as 10; the “weed control effect … Rorippa indica” value is 10; the “weed control effect … Veronica polita” value worked out at 10.
For the compound `Oc1cc(Cl)nnc1-c1ccc(Br)nc1` [Compound 1-11], for the setting “Dose 2000 g/ha”, the “weed control effect (activity level), Amaranthus retroflexus” value came to 10; the “weed control effect … Chenopodiaceae” value is given as 10; the “weed control effect … Rorippa indica” value stood at 10; the “weed control effect … Veronica polita” value is given as 10.
With `Oc1cc(Cl)nnc1-c1ccc(C(F)(F)F)nc1` [Compound 1-23], for the setting “Dose 2000 g/ha”, the “weed control effect (activity level), Amaranthus retroflexus” value is 10; the “weed control effect … Chenopodiaceae” value came to 10; the “weed control effect … Rorippa indica” value is recorded as 10; the “weed control effect … Veronica polita” value was 10.
Turning to `Oc1cc(Cl)nnc1-c1ccc(F)nc1F` [Compound 1-57], where the note is “Dose 2000 g/ha”, the “weed control effect (activity level), Amaranthus retroflexus” value was found to be 10; the “weed control effect … Chenopodiaceae” value came out at 10; the “weed control effect … Rorippa indica” value was determined as 10; the “weed control effect … Veronica polita” value is listed as 10.
As for `Oc1cc(Cl)nnc1-c1cc(F)cnc1F` [Compound 1-58], where the note is “Dose 2000 g/ha”, the “weed control effect (activity level), Amaranthus retroflexus” value was 10; the “weed control effect … Chenopodiaceae” value was 10; the “weed control effect … Rorippa indica” value is 10; the “weed control effect … Veronica polita” value is 10.
For `Oc1cc(Cl)nnc1-c1cnc(F)c(F)c1` [Compound 1-60], for the setting “Dose 2000 g/ha”, the “weed control effect (activity level), Amaranthus retroflexus” value worked out at 10; the “weed control effect … Chenopodiaceae” value is 10; the “weed control effect … Rorippa indica” value was determined as 10; the “weed control effect … Veronica polita” value is on record as 7 (above 70% growth inhibition rate).
With `Oc1cc(Cl)nnc1-c1ccc(Cl)nc1Cl` [Compound 1-63], under “Dose 2000 g/ha”, the “weed control effect (activity level), Amaranthus retroflexus” value came to 10; the “weed control effect … Chenopodiaceae” value is recorded as 10; the “weed control effect … Rorippa indica” value turned out to be 10; the “weed control effect … Veronica polita” value was 10.
On to `Cc1nc(F)ccc1-c1nnc(Cl)cc1O` [Compound 1-90], for which, where the note is “Dose 2000 g/ha”, the “weed control effect (activity level), Amaranthus retroflexus” value was found to be 10; the “weed control effect … Chenopodiaceae” value is given as 10; the “weed control effect … Rorippa indica” value was 10; the “weed control effect … Veronica polita” value was 7 (above 70% growth inhibition rate).
For the compound `Oc1cc(Cl)nnc1-c1cc(F)c(F)nc1F` [Compound 1-105], for the setting “Dose 2000 g/ha”, the “weed control effect (activity level), Amaranthus retroflexus” value came out at 10; the “weed control effect … Chenopodiaceae” value is 10; the “weed control effect … Rorippa indica” value came out at 10; the “weed control effect … Veronica polita” value amounted to 10.
Regarding `Oc1cc(C(F)(F)C(F)(F)F)nnc1-c1ccc(F)nc1F` [Compound 1-131], where the note is “Dose 3000 g/ha”, the “weed control effect (activity level), Amaranthus retroflexus” value was 10; the “weed control effect … Chenopodiaceae” value was 10; the “weed control effect … Rorippa indica” value came out at 10; the “weed control effect … Veronica polita” value worked out at 10.
For the compound `Oc1cc(Cl)nnc1-c1ccnc(F)c1` [Compound 2-3], the “comparison experiment (activity level), Digitaria sanguinalis” value stood at 10; the “comparison experiment (activity level), Echinochloa crus-galli” value is 10; the “comparison experiment (activity level), Galium aparine” value was determined as 10; the “comparison experiment (activity level), Rorippa indica” value is recorded as 10. The “comparison experiment (activity level), Setaria viridis” value is on record as 10 and the “comparison experiment (activity level), Veronica polita” value is 10. Besides, for the setting “Dose 1000 g/ha”, the “weed control effect (activity level), Amaranthus retroflexus” value was determined as 10; the “weed control effect … Chenopodiaceae” value was 10; the “weed control effect … Rorippa indica” value stood at 10; the “weed control effect … Veronica polita” value is recorded as 10.
Take `Oc1cc(Cl)nnc1-c1ccnc(Cl)c1` [Compound 2-5]: under “Dose 1000 g/ha”, the “weed control effect (activity level), Amaranthus retroflexus” value turned out to be 10; the “weed control effect … Chenopodiaceae” value is 10; the “weed control effect … Rorippa indica” value was found to be 10; the “weed control effect … Veronica polita” value is 10.

The values above are taken from patent US12084435B2, “Pyridine ring-substituted pyridazinol compounds and derivatives, preparation methods, herbicidal compositions and applications thereof” (Qingdao Kingagroot Chemical Compound Co., Ltd., priority 2018, dated 2024).
